Here are results for two compounds from patent US20240342133A1, “TOPICAL STATIN FORMULATION FOR TREATMENT OF LICHEN SCLEROSUS AND PSORIASIS” (TBT PHARMA, INC, priority 2023, published 2024).

One assay concerns c-myc. Put plainly: c-myc expression in human skin ex-vivo (chronic wound) cultures and organotype wound models. The class given is cell-based. Conditions: samples from chronic wounds, cultured, before and after treatment; relatively short time frame. An excerpt:
FIG. 3. C-myc expression in ex-vivo cultures before and after treatment with mevastatin. […] Samples are directly from chronic wounds, cultured, and measured c-myc levels before and after treatment with mevastatin. […] A large effect of high c-myc levels is that they cause abnormal differentiation and migration of keratinocytes.

In another assay the test system is chronic wounds. Put plainly: Full thickness diabetic porcine wound model. The class given is in vivo. Conditions: for increase in wound vascularity (% vascularity): versus vehicle, day 10, PD31 stain. The protocol: FIG. 6. Histology sections of optimal dose at day 10 show increased epithelialization and vascularization. FIG. 7. Percent vascularity at day 10 determined by PD31 stain. […] Mevastatin, simvastatin, and a combination were tested in a full thickness diabetic porcine model. FIG. 6 confirms that statins are an effective treatment of chronic wounds with a known mechanism of action. The compounds show increased epithelialization and vascularization.

The test system of a further assay is MRSA. The experiment in a line: MRSA load in ex-vivo wound cultures. Set-up: species or system methicillin resistant staph aureus. To be noted: after 24 hours.
A further assay concerns cortisol. The experiment in a line: Cortisol levels in primary human keratinocyte cultures and organotype wound healing models. It is filed as cell-based. Conditions: after treatment. The source says: FIG. 4. Cortisol levels in organotype wound models after treatment with mevastatin. […] Without cholesterol, local cortisol production should drop because cholesterol is required for cortisol synthesis. This was confirmed in primary human keratinocyte cultures and organotype wound healing models after treatment with mevastatin.

The subject of assay [1] is Primary human keratinocytes. The experiment in a line: Keratinocyte migration scratch test. The class given is cell-based. Conditions: varying doses.
The mark [2] stands for this setting: full thickness diabetic porcine model, day 10.

As to `CC[C@H](C)C(=O)O[C@H]1CCC=C2C=C[C@H](C)[C@H](CC[C@@H]3C[C@@H](O)CC(=O)O3)[C@H]21` [mevastatin], the c-myc levels entry in the assay on c-myc is given as “drop drastically”. Besides, in the assay with chronic wounds (setting [2]), the epithelialization result is “increased” and the vascularization entry is “increased”. In the assay on chronic wounds, the “increase in wound vascularity (% vascularity)” value is listed as approximately 3 fold. In the assay with MRSA, the MRSA load result is “drastic reduction”. The local cortisol production result with cortisol was “drop”. For the same compound, the keratinocyte migration result in assay [1] was “increasing migration levels with dose”.
Take `CCC(C)(C)C(=O)O[C@H]1C[C@@H](C)C=C2C=C[C@H](C)[C@H](CC[C@@H]3C[C@@H](O)CC(=O)O3)[C@H]21` [simvastatin]: the “increase in wound vascularity (% vascularity)” value in the assay with chronic wounds was approximately 3 fold.
